According to PMC7385619, “A triple action CDK4/6-PI3K-BET inhibitor with augmented cancer cell cytotoxicity” (Cell Discovery, 2020):
Like-named read-outs stand apart in the source and are kept apart here.

How the values were obtained:
Assay in all cases: KINOMEscan assay (Eurofins DiscoverX)
Format in all cases: binding
kinome (kinase panel) [1] = molecular target: T1, kinome (kinase panel) (Homo sapiens, UniProt Q02763); conditions: TIE2 (TEK); 1000 nM; read-out: Percent Control
T1 construct: purchased Eurofins DiscoverX

kinome (kinase panel) [2] = molecular target: T2, kinome (kinase panel) (Homo sapiens, UniProt P00519); conditions: 1000 nM, read-out: Percent Control
T2 construct: purchased Eurofins DiscoverX

kinome (kinase panel) [3] = molecular target: T3, kinome (kinase panel) (Homo sapiens, UniProt P10721, D816V); conditions: […]; 1000 nM; read-out: Percent Control
T3 construct: purchased Eurofins DiscoverX

kinome (kinase panel) [4] = molecular target: T4, kinome (kinase panel) (Homo sapiens, UniProt P57078); conditions: RIPK4; 1000 nM; read-out: Percent Control
T4 construct: purchased Eurofins DiscoverX

kinome (kinase panel) [5] = molecular target: T5, kinome (kinase panel) (Homo sapiens, UniProt Q8N5S9); conditions: CAMKK1; 1000 nM; read-out: Percent Control
T5 construct: purchased Eurofins DiscoverX

kinome (kinase panel) [6] = molecular target: T6, kinome (kinase panel) (Homo sapiens, UniProt Q6XUX3); conditions: RIPK5 (DSTYK); 1000 nM; read-out: Percent Control
T6 construct: purchased Eurofins DiscoverX

kinome (kinase panel) [7] = molecular target: T7, kinome (kinase panel) (Homo sapiens, UniProt P10721, D816H); conditions: […]; 1000 nM; read-out: Percent Control
T7 construct: purchased Eurofins DiscoverX

kinome (kinase panel) [8] = molecular target: T8, kinome (kinase panel) (Homo sapiens, UniProt Q8NEB9); conditions: VPS34 (PIK3C3); 1000 nM; read-out: Percent Control
T8 construct: purchased Eurofins DiscoverX

kinome (kinase panel) [9] = molecular target: T9, kinome (kinase panel) (Homo sapiens, UniProt P35916); conditions: FLT4; 1000 nM; read-out: Percent Control
T9 construct: purchased Eurofins DiscoverX

kinome (kinase panel) [10] = molecular target: T10, kinome (kinase panel) (Homo sapiens, UniProt Q15418); conditions: 1000 nM, read-out: Percent Control
T10 construct: purchased Eurofins DiscoverX

kinome (kinase panel) [11] = molecular target: T11, kinome (kinase panel) (Homo sapiens, UniProt Q96SB4); conditions: SRPK1; 1000 nM; read-out: Percent Control
T11 construct: purchased Eurofins DiscoverX

kinome (kinase panel) [12] = molecular target: T12, kinome (kinase panel) (Homo sapiens, UniProt O60674); conditions: JAK2(JH1domain-catalytic); 1000 nM; read-out: Percent Control
T12 construct: purchased Eurofins DiscoverX

kinome (kinase panel) [13] = molecular target: T13, kinome (kinase panel) (Homo sapiens, UniProt P11309); conditions: PIM1; 1000 nM; read-out: Percent Control
T13 construct: purchased Eurofins DiscoverX

kinome (kinase panel) [14] = molecular target: T14, kinome (kinase panel) (Homo sapiens, UniProt Q13546); conditions: RIPK1; 1000 nM; read-out: Percent Control
T14 construct: purchased Eurofins DiscoverX

kinome (kinase panel) [15] = molecular target: T15, kinome (kinase panel) (Homo sapiens, UniProt P06213); conditions: INSR; 1000 nM; read-out: Percent Control
T15 construct: purchased Eurofins DiscoverX

kinome (kinase panel) [16] = molecular target: T16, kinome (kinase panel) (Homo sapiens, UniProt Q9UF33); conditions: EPHA6; 1000 nM; read-out: Percent Control
T16 construct: purchased Eurofins DiscoverX

kinome (kinase panel) [17] = molecular target: T17, kinome (kinase panel) (Homo sapiens, UniProt P42336, E542K); conditions: read-out: Percent Control
T17 construct: purchased Eurofins DiscoverX

kinome (kinase panel) [18] = molecular target: T18, kinome (kinase panel) (Homo sapiens, UniProt Q9P289); conditions: MST4; 1000 nM; read-out: Percent Control
T18 construct: purchased Eurofins DiscoverX

kinome (kinase panel) [19] = molecular target: T19, kinome (kinase panel) (Homo sapiens, UniProt P27037); conditions: ACVR2A; 1000 nM; read-out: Percent Control
T19 construct: purchased Eurofins DiscoverX

kinome (kinase panel) [20] = molecular target: T20, kinome (kinase panel) (Homo sapiens, UniProt Q9Y3S1); conditions: WNK2; 1000 nM; read-out: Percent Control
T20 construct: purchased Eurofins DiscoverX

kinome (kinase panel) [21] = molecular target: T21, kinome (kinase panel) (Homo sapiens, UniProt Q9H2G2); conditions: SLK; 1000 nM; read-out: Percent Control
T21 construct: purchased Eurofins DiscoverX

kinome (kinase panel) [22] = molecular target: T22, kinome (kinase panel) (Homo sapiens, UniProt Q6P3R8); conditions: NEK5; 1000 nM; read-out: Percent Control
T22 construct: purchased Eurofins DiscoverX

kinome (kinase panel) [23] = molecular target: T23, kinome (kinase panel) (Homo sapiens, UniProt P50613); conditions: CDK7; 1000 nM; read-out: Percent Control
T23 construct: purchased Eurofins DiscoverX

kinome (kinase panel) [24] = molecular target: T24, kinome (kinase panel) (Homo sapiens, UniProt P17948); conditions: FLT1; 1000 nM; read-out: Percent Control
T24 construct: purchased Eurofins DiscoverX

kinome (kinase panel) [25] = molecular target: T25, kinome (kinase panel) (Homo sapiens, UniProt P36888, D835Y); conditions: […]; 1000 nM; read-out: Percent Control
T25 construct: purchased Eurofins DiscoverX

kinome (kinase panel) [26] = molecular target: T26, kinome (kinase panel) (Homo sapiens, UniProt Q15303); conditions: ERBB4; 1000 nM; read-out: Percent Control
T26 construct: purchased Eurofins DiscoverX

kinome (kinase panel) [27] = molecular target: T27, kinome (kinase panel) (Homo sapiens, UniProt P14616); conditions: INSRR; 1000 nM; read-out: Percent Control
T27 construct: purchased Eurofins DiscoverX

kinome (kinase panel) [28] = molecular target: T28, kinome (kinase panel) (Homo sapiens, UniProt P33981); conditions: TTK; 1000 nM; read-out: Percent Control
T28 construct: purchased Eurofins DiscoverX

kinome (kinase panel) [29] = molecular target: T29, kinome (kinase panel) (Homo sapiens, UniProt O43353); conditions: RIPK2; 1000 nM; read-out: Percent Control
T29 construct: purchased Eurofins DiscoverX

kinome (kinase panel) [30] = molecular target: T30, kinome (kinase panel) (Homo sapiens, UniProt Q9Y6M4); conditions: CSNK1G3; 1000 nM; read-out: Percent Control
T30 construct: purchased Eurofins DiscoverX

kinome (kinase panel) [31] = molecular target: T31, kinome (kinase panel) (Homo sapiens, UniProt O75385); conditions: ULK1; 1000 nM; read-out: Percent Control
T31 construct: purchased Eurofins DiscoverX

kinome (kinase panel) [32] = molecular target: T32, kinome (kinase panel) (Homo sapiens, UniProt Q16512); conditions: PKN1; 1000 nM; read-out: Percent Control
T32 construct: purchased Eurofins DiscoverX

kinome (kinase panel) [33] = molecular target: T33, kinome (kinase panel) (Homo sapiens, UniProt P00533, G719C); conditions: […]; 1000 nM; read-out: Percent Control
T33 construct: purchased Eurofins DiscoverX

T10 sequence (Q15418 whole entry): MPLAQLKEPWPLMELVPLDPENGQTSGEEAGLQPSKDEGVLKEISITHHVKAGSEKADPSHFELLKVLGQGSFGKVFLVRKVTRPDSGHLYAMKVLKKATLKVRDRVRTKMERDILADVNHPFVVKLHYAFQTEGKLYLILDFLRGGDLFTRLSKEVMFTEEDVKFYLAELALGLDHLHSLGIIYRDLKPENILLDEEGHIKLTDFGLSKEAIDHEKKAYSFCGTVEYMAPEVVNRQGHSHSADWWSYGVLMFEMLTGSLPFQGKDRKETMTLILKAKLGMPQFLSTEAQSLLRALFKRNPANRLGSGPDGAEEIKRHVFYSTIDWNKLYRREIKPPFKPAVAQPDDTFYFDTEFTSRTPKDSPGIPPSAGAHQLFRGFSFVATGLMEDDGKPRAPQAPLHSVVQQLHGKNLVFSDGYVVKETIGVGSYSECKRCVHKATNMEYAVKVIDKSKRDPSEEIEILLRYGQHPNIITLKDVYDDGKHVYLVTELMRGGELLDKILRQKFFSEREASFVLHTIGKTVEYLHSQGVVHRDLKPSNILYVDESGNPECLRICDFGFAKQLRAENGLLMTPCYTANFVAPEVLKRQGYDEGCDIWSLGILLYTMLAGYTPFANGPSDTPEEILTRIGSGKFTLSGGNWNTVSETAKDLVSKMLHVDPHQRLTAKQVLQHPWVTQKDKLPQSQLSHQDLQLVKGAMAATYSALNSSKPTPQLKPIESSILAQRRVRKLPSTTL
T2 sequence (P00519 whole entry): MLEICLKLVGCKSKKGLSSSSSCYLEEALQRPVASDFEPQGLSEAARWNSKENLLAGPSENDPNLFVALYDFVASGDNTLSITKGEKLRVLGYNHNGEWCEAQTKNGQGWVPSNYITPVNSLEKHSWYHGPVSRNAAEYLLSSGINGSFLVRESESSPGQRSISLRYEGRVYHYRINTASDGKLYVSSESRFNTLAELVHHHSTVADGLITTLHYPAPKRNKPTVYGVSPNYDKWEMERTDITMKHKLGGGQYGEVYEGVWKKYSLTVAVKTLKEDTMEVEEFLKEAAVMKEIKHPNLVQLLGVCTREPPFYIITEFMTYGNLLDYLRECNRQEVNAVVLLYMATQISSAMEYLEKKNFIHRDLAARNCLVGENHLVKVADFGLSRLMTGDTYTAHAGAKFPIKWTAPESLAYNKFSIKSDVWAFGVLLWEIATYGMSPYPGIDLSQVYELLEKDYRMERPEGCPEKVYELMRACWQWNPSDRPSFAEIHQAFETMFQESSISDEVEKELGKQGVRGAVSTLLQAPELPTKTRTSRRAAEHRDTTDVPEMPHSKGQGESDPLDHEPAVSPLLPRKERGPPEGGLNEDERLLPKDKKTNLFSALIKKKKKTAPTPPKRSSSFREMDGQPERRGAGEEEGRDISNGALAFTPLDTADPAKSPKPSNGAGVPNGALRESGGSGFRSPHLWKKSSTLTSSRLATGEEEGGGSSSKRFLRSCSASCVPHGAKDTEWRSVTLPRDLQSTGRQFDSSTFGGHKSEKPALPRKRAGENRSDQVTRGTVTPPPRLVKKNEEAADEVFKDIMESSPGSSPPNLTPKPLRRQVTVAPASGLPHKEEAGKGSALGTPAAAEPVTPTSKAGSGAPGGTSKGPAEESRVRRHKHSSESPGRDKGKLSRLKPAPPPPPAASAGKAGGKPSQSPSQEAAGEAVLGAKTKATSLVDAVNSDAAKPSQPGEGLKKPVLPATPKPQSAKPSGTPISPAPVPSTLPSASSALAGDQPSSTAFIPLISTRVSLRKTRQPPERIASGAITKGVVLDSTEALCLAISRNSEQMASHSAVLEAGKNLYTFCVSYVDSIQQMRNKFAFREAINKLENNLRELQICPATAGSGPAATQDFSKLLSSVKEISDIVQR
T5 sequence (Q8N5S9 whole entry): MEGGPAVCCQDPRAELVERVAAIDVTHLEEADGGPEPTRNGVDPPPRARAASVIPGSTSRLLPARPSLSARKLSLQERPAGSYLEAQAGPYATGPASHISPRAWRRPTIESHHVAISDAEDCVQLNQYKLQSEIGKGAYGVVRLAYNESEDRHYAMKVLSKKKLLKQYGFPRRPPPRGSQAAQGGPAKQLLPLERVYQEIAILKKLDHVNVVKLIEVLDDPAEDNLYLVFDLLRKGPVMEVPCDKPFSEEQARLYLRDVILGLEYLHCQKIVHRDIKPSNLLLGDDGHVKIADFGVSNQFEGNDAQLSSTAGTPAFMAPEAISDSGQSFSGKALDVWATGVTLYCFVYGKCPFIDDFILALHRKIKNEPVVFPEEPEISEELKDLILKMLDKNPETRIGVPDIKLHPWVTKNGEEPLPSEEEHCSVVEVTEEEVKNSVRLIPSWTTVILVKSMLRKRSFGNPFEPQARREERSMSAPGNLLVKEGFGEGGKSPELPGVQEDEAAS
T9 sequence (P35916 25-1363): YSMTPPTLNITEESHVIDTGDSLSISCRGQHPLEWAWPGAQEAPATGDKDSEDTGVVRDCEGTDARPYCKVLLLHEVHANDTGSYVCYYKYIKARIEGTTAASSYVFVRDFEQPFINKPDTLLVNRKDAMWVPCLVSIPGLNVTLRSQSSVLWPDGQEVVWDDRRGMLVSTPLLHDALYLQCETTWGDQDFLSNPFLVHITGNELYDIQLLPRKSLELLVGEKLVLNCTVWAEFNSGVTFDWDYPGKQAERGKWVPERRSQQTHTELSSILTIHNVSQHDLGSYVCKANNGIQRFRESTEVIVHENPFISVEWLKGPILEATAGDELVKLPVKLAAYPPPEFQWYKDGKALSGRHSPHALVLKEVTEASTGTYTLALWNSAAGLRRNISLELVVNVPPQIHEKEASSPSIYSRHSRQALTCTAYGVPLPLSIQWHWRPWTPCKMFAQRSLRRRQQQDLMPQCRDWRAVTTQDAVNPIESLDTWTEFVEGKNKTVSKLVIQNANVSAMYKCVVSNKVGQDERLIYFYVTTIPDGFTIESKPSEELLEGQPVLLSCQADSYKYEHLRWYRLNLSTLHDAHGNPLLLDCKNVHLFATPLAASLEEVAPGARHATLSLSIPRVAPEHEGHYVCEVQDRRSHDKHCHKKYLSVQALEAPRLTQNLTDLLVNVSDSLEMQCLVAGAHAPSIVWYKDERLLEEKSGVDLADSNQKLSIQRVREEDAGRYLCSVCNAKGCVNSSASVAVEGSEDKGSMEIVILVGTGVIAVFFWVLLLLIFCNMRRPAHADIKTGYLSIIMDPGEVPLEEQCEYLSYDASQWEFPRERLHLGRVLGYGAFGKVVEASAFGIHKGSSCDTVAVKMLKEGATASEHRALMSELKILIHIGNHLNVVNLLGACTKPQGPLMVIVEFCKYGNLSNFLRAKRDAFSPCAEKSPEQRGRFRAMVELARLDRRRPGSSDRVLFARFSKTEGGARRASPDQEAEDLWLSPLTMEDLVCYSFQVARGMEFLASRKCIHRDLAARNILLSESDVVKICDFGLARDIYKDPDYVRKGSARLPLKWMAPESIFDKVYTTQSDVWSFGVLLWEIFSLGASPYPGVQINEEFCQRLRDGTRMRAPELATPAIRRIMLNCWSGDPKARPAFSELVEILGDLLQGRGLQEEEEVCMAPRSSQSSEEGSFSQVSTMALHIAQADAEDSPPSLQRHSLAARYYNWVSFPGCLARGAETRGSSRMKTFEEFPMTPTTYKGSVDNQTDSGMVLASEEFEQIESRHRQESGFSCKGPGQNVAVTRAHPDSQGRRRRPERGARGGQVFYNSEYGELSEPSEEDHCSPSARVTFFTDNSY
T26 sequence (Q15303 26-1308): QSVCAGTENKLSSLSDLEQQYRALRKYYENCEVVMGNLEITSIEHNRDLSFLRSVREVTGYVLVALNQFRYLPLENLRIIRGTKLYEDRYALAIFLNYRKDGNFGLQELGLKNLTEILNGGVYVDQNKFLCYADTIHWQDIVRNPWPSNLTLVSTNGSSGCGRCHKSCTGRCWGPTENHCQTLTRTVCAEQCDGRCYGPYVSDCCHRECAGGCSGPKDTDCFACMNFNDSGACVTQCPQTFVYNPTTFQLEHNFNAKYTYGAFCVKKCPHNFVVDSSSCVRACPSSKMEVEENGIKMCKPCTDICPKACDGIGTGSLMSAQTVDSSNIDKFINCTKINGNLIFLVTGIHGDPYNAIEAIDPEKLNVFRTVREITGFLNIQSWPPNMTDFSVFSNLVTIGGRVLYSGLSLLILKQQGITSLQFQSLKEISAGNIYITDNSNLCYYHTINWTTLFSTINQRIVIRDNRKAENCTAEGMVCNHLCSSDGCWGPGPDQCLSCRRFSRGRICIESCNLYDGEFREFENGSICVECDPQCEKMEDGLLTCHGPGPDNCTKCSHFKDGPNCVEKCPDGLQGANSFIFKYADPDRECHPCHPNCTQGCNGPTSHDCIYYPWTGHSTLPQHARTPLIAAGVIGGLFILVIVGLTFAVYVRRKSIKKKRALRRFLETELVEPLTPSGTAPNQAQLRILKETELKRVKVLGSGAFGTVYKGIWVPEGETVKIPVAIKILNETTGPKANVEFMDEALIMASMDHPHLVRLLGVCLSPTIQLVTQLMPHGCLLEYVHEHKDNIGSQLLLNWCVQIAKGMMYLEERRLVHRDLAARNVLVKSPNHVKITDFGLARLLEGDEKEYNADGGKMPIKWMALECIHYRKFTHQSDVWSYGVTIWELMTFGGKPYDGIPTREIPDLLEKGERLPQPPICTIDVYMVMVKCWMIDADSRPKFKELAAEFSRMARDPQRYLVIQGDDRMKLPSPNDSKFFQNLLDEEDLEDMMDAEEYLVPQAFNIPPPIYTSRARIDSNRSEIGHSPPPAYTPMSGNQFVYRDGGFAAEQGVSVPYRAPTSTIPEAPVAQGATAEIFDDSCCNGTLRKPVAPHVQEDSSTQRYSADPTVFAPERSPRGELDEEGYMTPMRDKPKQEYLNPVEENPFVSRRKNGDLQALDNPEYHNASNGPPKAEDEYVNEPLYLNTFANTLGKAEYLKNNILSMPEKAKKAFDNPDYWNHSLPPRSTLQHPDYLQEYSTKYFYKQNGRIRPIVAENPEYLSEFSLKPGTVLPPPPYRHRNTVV

CN(C)C(=O)c1cc2cnc(Nc3ccc(-c4csc5c(=O)cc(N6CCOCC6)oc45)cc3)nc2n1C1CCCC1 [SRX3177]
remaining binding at 1 µM (kinome (kinase panel) [1]): 100% | remaining binding at 1 µM (kinome (kinase panel) [2]; ABL1-nonphosphorylated): 78% | remaining binding at 1 µM (kinome (kinase panel) [2]; ABL1-phosphorylated): 63% | remaining binding at 1 µM (kinome (kinase panel) [3]): 23% | remaining binding at 1 µM (kinome (kinase panel) [4]): 58% | remaining binding at 1 µM (kinome (kinase panel) [5]): 46% | remaining binding at 1 µM (kinome (kinase panel) [6]): 87% | remaining binding at 1 µM (kinome (kinase panel) [7]): 28% | remaining binding at 1 µM (kinome (kinase panel) [8]): 46% | remaining binding at 1 µM (kinome (kinase panel) [9]): 88% | remaining binding at 1 µM (kinome (kinase panel) [10]; RSK1(Kin.Dom.1-N-terminal) (RPS6KA1)): 100% | remaining binding at 1 µM (kinome (kinase panel) [10]; RSK1(Kin.Dom.2-C-terminal) (RPS6KA1)): 100% | remaining binding at 1 µM (kinome (kinase panel) [11]): 22% | remaining binding at 1 µM (kinome (kinase panel) [12]): 34% | remaining binding at 1 µM (kinome (kinase panel) [13]): 56% | remaining binding at 1 µM (kinome (kinase panel) [14]): 96% | remaining binding at 1 µM (kinome (kinase panel) [15]): 47% | remaining binding at 1 µM (kinome (kinase panel) [16]): 99% | remaining binding at 1 µM (kinome (kinase panel) [17]): 40% | remaining binding at 1 µM (kinome (kinase panel) [18]): 41% | remaining binding at 1 µM (kinome (kinase panel) [19]): 99% | remaining binding at 1 µM (kinome (kinase panel) [20]): 77% | remaining binding at 1 µM (kinome (kinase panel) [21]): 38% | remaining binding at 1 µM (kinome (kinase panel) [22]): 93% | remaining binding at 1 µM (kinome (kinase panel) [23]): 90% | remaining binding at 1 µM (kinome (kinase panel) [24]): 91% | remaining binding at 1 µM (kinome (kinase panel) [25]): 83% | remaining binding at 1 µM (kinome (kinase panel) [26]): 100% | remaining binding at 1 µM (kinome (kinase panel) [27]): 100% | remaining binding at 1 µM (kinome (kinase panel) [28]): 1.8% | remaining binding at 1 µM (kinome (kinase panel) [29]): 93% | remaining binding at 1 µM (kinome (kinase panel) [30]): 100% | remaining binding at 1 µM (kinome (kinase panel) [31]): 90% | remaining binding at 1 µM (kinome (kinase panel) [32]): 55% | remaining binding at 1 µM (kinome (kinase panel) [33]): 79%
